These results are taken from patent publication US20050084528A1, “Anti-platelet aggregation compositions” (priority 2003, published 2005).

SMILES strings stand for the structures. Like-named read-outs stand apart in the source and are kept apart here.

Test [1] concerns platelet aggregation induced by AA. As to the kind of experiment: Ex vivo platelet aggregation in platelet rich plasma of volunteers after a single oral dose, induced by arachidonic acid (1.6 mM). As to conditions: for inhibition of platelet aggregation induced by AA (in words): single oral dose, 24 hours. Also on record: species or system human. On the procedure:
(§1) The PRP samples were treated in vitro with calcium ionophore (A23187, 2.5 μM) or arachidonic acid (AA, 1.6 mM) to induce maximal aggregation. Platelet aggregation was monitored using a Dual-channel Lumi-aggregometer (Model 400, Chronolog Corporation, USA) using 0.45 ml samples of PRP. The resulting aggregation was recorded for all of the samples and a comparison was made between the pre- and post-test drug ingestion aggregation levels. The data was analysed using the Student's t-test and differences were considered significant when probability (p) was <0.05.

Test [2] has the same test system. Conditions: Saeed et al. 1998; cited from earlier work.
The test system of test [3] is platelet aggregation induced by A23187. In words: Ex vivo platelet aggregation in platelet rich plasma of volunteers after a single oral dose, induced by calcium ionophore A23187 (2.5 μM). Also on record: species or system human. Conditions: for % Inhibition A23187: aspirin 10 mg single oral dose, blood 24 hours after ingestion vs pre-dose, PRP, A23187 2.5 μM; for inhibition of platelet aggregation induced by A23187 (in words): single oral dose, 24 hours. On the procedure: as §1

Test [4] deals with platelet aggregation induced by PAF. As to conditions: Saeed et al. 1998; cited from earlier work.
Test [5] has as its system platelet aggregation induced by adrenaline. Conditions: Saeed et al. 1998; cited from earlier work.
The mark [6] stands for this setting: aspirin at a dose of 20 mg or 40 mg.
Setting [7] is: nimesulide at doses of 25 or 50 mg.

As for `CC(=O)Oc1ccccc1C(=O)O` [Aspirin, 2-acetoxybenzoic acid], in test [1] (aspirin 10 mg single oral dose, blood 24 hours after ingestion vs pre-dose, PRP, AA 1.6 mM), the “% Inhibition AA” value came out at 4%. In addition, the “inhibition of platelet aggregation induced by AA (in words)” value is reported as “ineffective” in test [1] (aspirin 10 mg), “effectively inhibited” in test [1] (setting [6]) and “inhibit” in test [2]. The “% Inhibition A23187” value was 27% in test [3] and “about 25%” in test [3] (listed as aspirin). Further, the “inhibition of platelet aggregation induced by A23187 (in words)” value in test [3] (setting [6]) is given as “effectively inhibited”. In addition, the “inhibition of platelet aggregation induced by PAF (in words)” value in test [4] is recorded as “inhibit”.
In the case of `CS(=O)(=O)Nc1ccc([N+](=O)[O-])cc1Oc1ccccc1` [Nimesulide, N-(4-nitro-2-phenoxyphenyl)methanesulfonamide], the “inhibition of platelet aggregation induced by adrenaline (in words)” value in test [5] is listed as “inhibits”. In addition, the “inhibition of platelet aggregation induced by AA (in words)” value is listed as “effectively inhibited” in test [1] (setting [7]) and “inhibit” in test [2]. For the same compound, the “inhibition of platelet aggregation induced by A23187 (in words)” value in test [3] (setting [7]) is “effectively inhibited”. In test [4], the “inhibition of platelet aggregation induced by PAF (in words)” value is reported as “inhibit”.
